In patent US20240262795A1, “PYRAZINE COMPOUNDS AS INHIBITORS OF FLT3” (Biomea Fusion, Inc., priority 2021, published 2024):
Residue numbers refer to the chain shown, from its start.

How the values were obtained:
[1] = biological target: T1, Ba/F3 cell lines stably expressing human FLT3-ITD-F691L (Homo sapiens, UniProt P36888, F691L, cells depend on it, form not given); assay: FLT3 mutant assay, cell viability, Ba/F3-FLT3-ITD-F691L; format: cell-based, mouse; conditions: IC50 (3 days), CellTiter-Glo; read-out: Ba/F3-FLT3-ITD-F691L Relative IC50
T1 construct: Ba/F3-FLT3-ITD-F691L Relative IC50
T1 sequence (P36888 1-993 F691L): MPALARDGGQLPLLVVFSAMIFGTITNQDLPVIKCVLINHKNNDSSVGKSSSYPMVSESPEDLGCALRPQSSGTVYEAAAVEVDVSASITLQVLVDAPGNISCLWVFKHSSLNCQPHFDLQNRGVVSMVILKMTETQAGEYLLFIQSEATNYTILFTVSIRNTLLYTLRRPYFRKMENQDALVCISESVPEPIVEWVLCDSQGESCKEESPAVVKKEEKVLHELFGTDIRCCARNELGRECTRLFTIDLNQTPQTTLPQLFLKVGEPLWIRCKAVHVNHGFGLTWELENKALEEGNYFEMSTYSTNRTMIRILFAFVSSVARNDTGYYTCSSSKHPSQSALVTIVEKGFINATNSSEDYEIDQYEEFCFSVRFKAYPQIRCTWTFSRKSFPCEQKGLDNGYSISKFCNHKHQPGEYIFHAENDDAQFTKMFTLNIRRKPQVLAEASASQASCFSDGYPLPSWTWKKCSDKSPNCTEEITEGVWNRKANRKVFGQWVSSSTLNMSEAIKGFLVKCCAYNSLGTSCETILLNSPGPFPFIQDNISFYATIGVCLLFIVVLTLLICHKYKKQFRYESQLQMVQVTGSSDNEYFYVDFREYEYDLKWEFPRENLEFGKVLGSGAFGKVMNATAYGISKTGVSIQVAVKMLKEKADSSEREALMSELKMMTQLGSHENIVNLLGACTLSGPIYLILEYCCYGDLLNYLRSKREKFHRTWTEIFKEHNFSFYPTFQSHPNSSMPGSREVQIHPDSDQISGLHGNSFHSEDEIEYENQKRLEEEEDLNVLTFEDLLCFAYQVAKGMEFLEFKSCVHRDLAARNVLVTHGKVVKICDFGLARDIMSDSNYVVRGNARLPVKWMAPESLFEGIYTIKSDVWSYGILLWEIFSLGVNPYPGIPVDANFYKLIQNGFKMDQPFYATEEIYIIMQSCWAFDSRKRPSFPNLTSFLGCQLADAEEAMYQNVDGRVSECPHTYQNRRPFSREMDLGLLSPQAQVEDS
Protocol: (§1) Activity of compounds on FLT3 activating mutations were assessed using Ba/F3 cell lines (mouse pro-B cell line) stably expressing human FLT3-ITD, FLT3-ITD-D835Y or FLT3-ITD-F691L. […] The supernatant collected were concentrated with PEG8000 and used to infect Ba/F3 cells at 1-5 MOI in serum-free media with polybrene. Infected Ba/F3 cells were selected in presence of puromycin, and surviving cells verified by sequencing and/or protein detection assay. Constitutive expression of the activating kinase transforms the Ba/F3 cells into IL-3-independent growth allowing them to be cultured in the absence of IL-3. […] For use in compound testing, cells in exponential growth phase were harvested, counted, and resuspended at the required cell density. Cell viability assays were performed in 96-well assay plates and 90 μL of cell suspension seeded per well. Serial dilutions of the test compounds and assay controls and were freshly prepared for the assay. Nine-point 3× serial dilutions were prepared in 100% DMSO (400× stock) and subsequently diluted in cell culture media to obtain 10× stocks. Ten microliters of the 10× stock serial dilutions were added to the appropriate wells (triplicate wells per condition) in the assay plate. […] Assay plates were incubated for 3 days in at 37° C. in a humidified incubator with 5% CO2.
(§2) Inhibition rate (IR) of the tested compounds was determined by the following formula: IR (%)=(1−(RLU compound−RLU blank)/(RLU control−RLU blank))*100%. The inhibitions of different dose of compound were calculated in Excel file, and the dose responses were analysed using GraphPad Prism to evaluate related parameters, such as Bottom, Top and IC50. For the IC50 analysis by GraphPad Prism, the equation below was used to fit curve: Y=Bottom+(Top−Bottom)/(1+10^((LogIC50−X)*HillSlope))

[2] = biological target: T2, Ba/F3 cell lines stably expressing human FLT3-ITD-D835Y (Homo sapiens, UniProt P36888, D835Y, cells depend on it, form not given); assay: FLT3 mutant assay, cell viability, Ba/F3-FLT3-ITD-D835Y; format: cell-based, mouse; conditions: IC50 (3 days), CellTiter-Glo; read-out: Ba/F3-FLT3-ITD-D835Y Relative IC50
T2 construct: Ba/F3-FLT3-ITD-D835Y Relative IC50
T2 sequence (P36888 1-993 D835Y): T1 sequence (P36888 1-993 F691L) with L691F, D835Y
Protocol: as §1, §2

SMILES	GI50 [1]	GI50 [2]
CCc1nc(C(N)=O)c(Nc2cccc(CCNC(=O)[C@H](C)N(C)C(=O)/C=C/CN(C)C)c2)nc1N(C)C(C)C [Compound 204, (S,E)-3-((3-(2-(2-(4-(dimethylamino)-N-methylbut-2-enamido)propanamido)ethyl)phenyl)amino)-6-ethyl-5-(isopropyl(methyl)amino)pyrazine-2-carboxamide]	1 to 10 nM	1 to 10 nM
CCc1nc(C(N)=O)c(Nc2cccc(CCNC(=O)[C@H](C)N(C)C(=O)/C=C/CN(C)C)c2)nc1NC(C)C [Compound 205, (S,E)-3-((3-(2-(2-(4-(dimethylamino)-N-methylbut-2-enamido)propanamido)ethyl)phenyl)amino)-6-ethyl-5-(isopropylamino)pyrazine-2-carboxamide]	1 to 10 nM	1 to 10 nM
CCc1nc(C(N)=O)c(Nc2cccc(CCNC(=O)CN(C)C(=O)/C=C/CN(C)C)c2)nc1C1CC1 [Compound 219, (E)-5-cyclopropyl-3-((3-(2-(2-(4-(dimethylamino)-N-methylbut-2-enamido)acetamido)ethyl)phenyl)amino)-6-ethylpyrazine-2-carboxamide]	1 to 10 nM	10 to 100 nM
Cc1nc(C(N)=O)c(Nc2cccc(CCNC(=O)[C@H](C)N(C)C(=O)/C=C/CN(C)C)c2)nc1N(C)C(C)C [Compound 232, (S, E)-3-((3-(2-(2-(4-(dimethylamino)-N-methylbut-2-enamido)propanamido)ethyl)phenyl)amino)-5-(isopropyl (methyl)amino)-6-methylpyrazine-2-carboxamide]	1 to 10 nM	10 to 100 nM
Cc1nc(C(N)=O)c(Nc2cccc(CCNC(=O)CN(C)C(=O)/C=C/CN(C)C)c2)nc1N(C)C(C)C [Compound 250, (E)-3-((3-(2-(2-(4-(dimethylamino)-N-methylbut-2-enamido)acetamido)ethyl)phenyl)amino)-5-(isopropyl(methyl)amino)-6-methylpyrazine-2-carboxamide]	1 to 10 nM	10 to 100 nM
CCc1nc(C(N)=O)c(Nc2cccc(CCNC(=O)CN(C)C(=O)/C=C/CN(C)C)c2)nc1N(C)CC [Compound 252, (E)-3-((3-(2-(2-(4-(dimethylamino)-N-methylbut-2-enamido)acetamido)ethyl)phenyl)amino)-6-ethyl-5-(ethyl (methyl)amino) pyrazine-2-carboxamide]	1 to 10 nM	1 to 10 nM
CCc1nc(C(N)=O)c(Nc2cccc(CCNC(=O)[C@H](C)N(C)C(=O)/C=C/CNC)c2)nc1N(C)C(C)C [Compound 307, (S,E)-6-ethyl-5-(isopropyl(methyl)amino)-3-((3-(2-(2-(N-methyl-4-(methylamino)but-2-enamido)propanamido)ethyl)phenyl)amino)pyrazine-2-carboxamide]	10 to 100 nM	10 to 100 nM
CCc1nc(C(N)=O)c(Nc2ccnc(CCNC(=O)[C@H](C)N(C)C(=O)/C=C/CN(C)C)c2)nc1C1CC1 [Compound 310, (S,E)-5-cyclopropyl-3-((2-(2-(2-(4-(dimethylamino)-N-methylbut-2-enamido)propanamido)ethyl)pyridin-4-yl)amino)-6-ethylpyrazine-2-carboxamide]	10 to 100 nM	10 to 100 nM
CCc1nc(C(N)=O)c(Nc2cccc([C@@H](C)CNC(=O)CN(C)C(=O)/C=C/CN(C)C)c2)nc1C1CC1 [Compound 504, (R,E)-5-cyclopropyl-3-((3-(1-(2-(4-(dimethylamino)-N-methylbut-2-enamido)acetamido)propan-2-yl)phenyl)amino)-6-ethylpyrazine-2-carboxamide]	1 to 10 nM	10 to 100 nM
CCc1nc(C(N)=O)c(Nc2cccc([C@@H](C)CNC(=O)CN(C)C(=O)/C=C/CN3CCC3)c2)nc1C1CC1 [Compound 506, (R,E)-3-((3-(1-(2-(4-(azetidin-1-yl)-N-methylbut-2-enamido)acetamido)propan-2-yl)phenyl)amino)-5-cyclopropyl-6-ethylpyrazine-2-carboxamide]	1 to 10 nM	10 to 100 nM
CCCc1nc(Nc2cccc([C@@H](C)CNC(=O)CN(C)C(=O)/C=C/CN3CCC3)c2)c(C(N)=O)nc1CC [Compound 507, (R,E)-3-((3-(1-(2-(4-(azetidin-1-yl)-N-methylbut-2-enamido)acetamido)propan-2-yl)phenyl)amino)-6-ethyl-5-propylpyrazine-2-carboxamide]	1 to 10 nM	10 to 100 nM
CCc1nc(Nc2cccc([C@@H](C)CNC(=O)CN(C)C(=O)/C=C/CN3CCC3)c2)c(C(N)=O)nc1CC [Compound 508, (R, E)-3-((3-(1-(2-(4-(azetidin-1-yl)-N-methylbut-2-enamido)acetamido)propan-2-yl)phenyl)amino)-5,6-diethylpyrazine-2-carboxamide]	1 to 10 nM	10 to 100 nM
CCc1nc(C(N)=O)c(Nc2cc(F)cc(CCNC(=O)CN(C)C(=O)/C=C/CN3CCC3)c2)nc1C1CC1 [Compound 516, (E)-3-((3-(2-(2-(4-(azetidin-1-yl)-N-methylbut-2-enamido)acetamido)ethyl)-5-fluorophenyl)amino)-5-cyclopropyl-6-ethylpyrazine-2-carboxamide]	10 to 100 nM	10 to 100 nM
CCc1nc(C(N)=O)c(Nc2cccc(CCNC(=O)CN(C)C(=O)/C=C/CN3CCC3)c2)nc1N(C)CC [Compound 516A, (E)-3-((3-(2-(2-(4-(azetidin-1-yl)-N-methylbut-2-enamido)acetamido)ethyl)phenyl)amino)-6-ethyl-5-(ethyl(methyl)amino) pyrazine-2-carboxamide]	1 to 10 nM	10 to 100 nM
